What is called IC50 is the concentration at which inhibition is half-maximal. Higher therefore signals weaker potency.

The text below walks through data of patent EP0354522A1, “Use of alpha-aminoboronic acid derivatives in prevention and treatement of viral diseases” (HOECHST AKTIENGESELLSCHAFT, priority 1988, dated 1990).

The assay addresses T1, HIV-Protease (Human immunodeficiency virus type 1 group M subtype B, UniProt P04585).
T1 construct: Max-Planck-Institut für Molekulare Genetik, Berlin
Briefly: HIV protease test (cleavage of heptapeptide Ser-Phe-Asn-Phe-Pro-Gln-Ile, HPLC quantification of Ser-Phe-Asn-Phe). The class given is biochemical. The following applies: 2 h, 37°C; for IC50: cloned HIV protease, pH ca. 6,0; for activity at 100 µM / Restakt. bei 10^-4 M: residual enzyme activity at 10^-4 M inhibitor, 100 % = mean of runs without inhibitor, pH ca. 6,0, 1 % DMSO; for activity at 100 µM: read-out: Restakt. bei 10^-4 M; for Restakt. bei 10^-4 M: 100 µM. An excerpt: Als synthetisches Substrat ist ein Heptapeptid der Sequenz Ser-Phe-Asn-Phe-Pro-Gln-Ile geeignet. Diese Sequenz tritt im natürlichen Substrat der Protease auf und liefert bei der autokatalytischen Freisetzung nach einer Phe-Pro-Spaltung den N-terminalen Beginn der Proteasesequenz (Pro-Gln-Ile...).
Es wird eine klonierte HIV-Protease (Max-Planck-Institut für Molekulare Genetik, Berlin) benutzt. [drawing 5]
Von den Reaktionsprodukten wird Ser-Phe-Asn-Phe zur Abtrennung und quantitativen Bestimmung mittels HPLC herangezogen.
Nach 2 Stunden bei 37°C werden die Ansätze mit 225 µl HPLC-Elutionsmittel (s.u.) gestoppt. Etwa 150 µl des zentrifugierten Überstands (Eppendorf-Zentrifuge) werden in Mikrovials gefüllt. Das Injektionsvolumen für die HPLC-Trennung beträgt 20 µl. Ser-Phe-Asn-Phe wird durch Vergleich mit einem externen Standard bekannter Konzentration (0,5 µg/ 20 µl) quantitativ bestimmt und stellt die Meßgröße der Enzymaktivität (µg Tetrapeptid pro 20 µl Meßprobe) dar. Bezugswert (= 100 % Enzymaktivität) ist der Mittelwert aus 2 oder mehr Ansätzen ohne Inhibitor. Als Standard-Inhibitor wird Pepstatin A (10⁻⁴ oder 10⁻⁵ M) verwendet.
• a) Substratlösung: 2 mg Ser-Phe-Asn-Phe-Pro-Gln-Ile werden in 1 ml MGTE 15-Puffer gelöst. • b) Testsubstanzen: Diese werden 10⁻² oder 10⁻³ M in Dimethylsulfoxid (DMSO) gelöst und 1 : 40 mit MGTE 15-Puffer verdünnt; 10 µl dieser Lösung werden pro Ansatz verwendet; die Endkonzentration des Präparates beträgt 10⁻⁴ bzw. 10⁻⁵ M; die DMSO-Konzentration in allen Testansätzen ist 1 %. Für IC₅₀-Bestimmungen wird das Präparat, ausgehend von 10⁻² M, mit 100 % DMSO in der geeigneten Weise verdünnt. • c) Proteaselösung: Das Enzym wird mit MGTE 25-Puffer auf eine geeignete Konzentration verdünnt. • d) MGTE 15/25-Puffer 20 mM Morpholinoethansulfonsäure (MES) 15 (25) % (w/v) Glyzerin 0,1 % (v/v) Triton® X 100 (vgl. Merck Index 10, 6601) 5 mM EDTA 0,5 M NaCl 1 mM Dithiothreit (nur für MGTE 25) 1 mM Phenylmethylsulfonylfluorid (PMSF) Der pH-Wert soll ca. 6,0 betragen. • e) HPLC-Elutionsmittel: Eine 0,1 M Phosphorsäure-Lösung wird mit Triethylamin auf pH 2,5 eingestellt. Aus dieser Lösung wird ein Phosphorsäure-Acetonitril-Gemisch mit 22,6 Gewichts-Prozent Acetonitril hergestellt.
Säule: Radial Pak LC Cartridge, 8 mm/C18, 5 µ (der Fa. Waters, USA). Fluß: 1 ml/min Detektoreinstellung: 215 nm, 0,08 AU Zeit pro Analyse: 12 min; Retentionszeiten: Heptapeptid ca. 9,5 min, Tetrapeptid ca. 5,2 min Laufmittel: 77,4 Gew.-% 0,1 M H₃PO₄/pH 2,5 22,6 Gew.-% Acetonitril

As for `CCC[C@H](NC(=O)C(Cc1cccc2ccccc12)CS(=O)(=O)C(C)(C)C)C(=O)NC(CC1CCCC1)B1OC(C)(C)C(C)(C)O1` (stereo partly shown) [Beispiel 47, [3-t-Butylsulfonyl,2-(1-naphthylmethyl)]propionyl-Nva-[Cyclopentylmethyl,(4,4,5,5-tetramethyl-1,3,2-dioxaborolan-2-yl)]methylamid], the IC50 amounted to 10 µM and the activity at 100 µM was determined as 16%.
In the case of `CC1(C)OB(C(CC2CCCCC2)NC(=O)[C@H](CC(N)=O)NC(=O)C(Cc2cccc3ccccc23)CS(=O)(=O)C(C)(C)C)OC1(C)C` (stereo partly shown) [Beispiel 53, [3-t-Butylsulfonyl,2-(1-naphthylmethyl)]propionyl-Asn-[cyclohexylmethyl,(4,4,5,5-tetramethyl-1,3,2-dioxaborolan-2-yl)]methylamid], the IC50 was 10 µM and the activity at 100 µM was determined as 10%.
For `CCC[C@H](NC(=O)C(Cc1ccccc1)CS(=O)(=O)C(C)(C)C)C(=O)NC(B1OC(C)(C)C(C)(C)O1)C(C)CC` (stereo partly shown) [Beispiel 50, (2-Benzyl,3-t-butylsulfonyl)propionyl-Nva-[2-Methyl,1-(4,4,5,5-tetramethyl-1,3,2-dioxaborolan-2-yl)]butylamid], the activity at 100 µM was 53%.
Turning to `CC(C)[C@H](NC(=O)C(Cc1cccc2ccccc12)CS(=O)(=O)C(C)(C)C)C(=O)NC(CC1CCCCC1)B1OC(C)(C)C(C)(C)O1` (stereo partly shown) [Beispiel 51, [3-t-Butylsulfonyl, 2-(1-naphthylmethyl)]propionyl-Val-[cyclohexylmethyl,(4,4,5,5-tetramethyl-1,3,2-dioxaborolan-2-yl)]methylamid], the IC50 was 5 µM and the activity at 100 µM was 5%.
As to `CCC[C@H](NC(=O)C(Cc1ccccc1)CS(=O)(=O)C(C)(C)C)C(=O)NC(CC(CC)CC)B1OC(C)(C)C(C)(C)O1` (stereo partly shown) [Beispiel 49, (2-Benzyl,3-t-butylsulfonyl)propionyl-Nva-[3-Ethyl,1-(4,4,5,5-tetramethyl-1,3,2-dioxaborolan-2-yl)]pentylamid], the activity at 100 µM worked out at 46%.
As for `CCCC[C@H](NC(=O)[C@H](Cc1ccccc1)NC(=O)CC(C)C)C(=O)NC(CC1CCCCC1)B1OC(C)(C)C(C)(C)O1` (stereo partly drawn) [Beispiel 2, Iva-Phe-Nle-[Cyclohexylmethyl,(4,4,5,5-tetramethyl-1,3,2-dioxaborolan-2-yl)]methylamid], the activity at 100 µM turned out to be 74%.
As to “Iva-Thi-His-(Cyclohexylmethyl,dihydroxyboryl)methylamid [Beispiel 9]”, the “Restakt. bei 10^-4 M” value is 93%.
As for “Iva-Phe-Nva-(Cyclohexylmethyl,dihydroxyboryl)methylamid [Beispiel 5]”, inhibition was half-maximal at 70 µM (IC50) and the “Restakt. bei 10^-4 M” value is on record as 38%.
For the compound `CC(C)CC(NC(=O)[C@H](Cc1c[nH]cn1)NC(=O)C(Cc1cccc2ccccc12)Cc1cccc2ccccc12)B1OC(C)(C)C(C)(C)O1` (stereo partly drawn) [Beispiel 19, Bis-(1-Naphthylmethyl)acetyl-His-[3-methyl,l-(4,4,5,5-tetramethyl-1,3,2-dioxaborolan-2-yl)]butylamid], the activity at 100 µM came to 37%.
For `CCC[C@H](NC(=O)C(Cc1ccccc1)CS(=O)(=O)C(C)(C)C)C(=O)NC(CC1CCCCC1)B1OC(C)(C)C(C)(C)O1` (stereo partly shown) [Beispiel 35, (2-Benzyl,3-t-butylsulfonyl)propionyl-Nva-[Cyclohexylmethyl,(4,4,5,5-tetramethyl-1,3,2-dioxaborolan-2-yl)]methylamid], the IC50 is 40 µM and the activity at 100 µM came to 22%.
As to “[3-t-Butylsulfonyl,2-(2-thienylmethyl)]propionyl-Thi-(Cycloheptylmethyl,dihydroxyboryl)methylamid [Beispiel 33]”, the “Restakt. bei 10^-4 M” value is listed as 61%.
`CC(C)CC(=O)N[C@@H](Cc1ccccc1)C(=O)N[C@@H](Cc1c[nH]cn1)C(=O)NC(CC1CCCCCCC1)B1OC(C)(C)C(C)(C)O1` (stereo partly drawn) [Beispiel 17, Iva-Phe-His-[Cyclooctylmethyl,(4,4,5,5-tetramethyl-1,3,2-dioxaborolan-2-yl)]methylamid]: the IC50 stood at 200 µM and the activity at 100 µM amounted to 52%.
Consider `CCC[C@H](NC(=O)[C@H](Cc1ccccc1)NC(=O)CC(C)C)C(=O)NC(CC1CCC(C)CC1)B1OC(C)(C)C(C)(C)O1` (stereo partly drawn) [Beispiel 14, Iva-Phe-Nva-[(4-Methylcyclohexyl)methyl,(4,4,5,5-tetramethyl-1,3,2-dioxaborolan-2-yl)]methylamid], for which the activity at 100 µM was 75%.
